Measured values as given in patent US9050378B2, “N2S2 chelate-targeting ligand conjugates” (Board of Regents, The University of Texas System, priority 2003, dated 2015).

System: RBA CRL-1747 mammary tumor
Assay: Biodistribution in breast (mammary) tumor-bearing rats
Assay type: in vivo, rat
Conditions: Table 2
Procedure: (§1) Biodistribution was assessed in mammary tumor-bearing rats (RBA CRL-1747, n=3/time interval, iv). Studies were performed 14 to 17 days after implantation when tumors reached approximately 1 cm in diameter. Following administration of the radiotracer, rats were sacrificed at 0.5-4 hrs. The selected tissues were excised, weighed and counted for radioactivity by using a gamma counter (Packard Instruments, Downers Grove, Ill.). The biodistribution of tracer in each sample was calculated as percentage of the injected dose per gram of tissue wet weight (% ID/g).
as §1, with “breast” for “mammary”

Work on `O=C([O-])[C@H](C[S-])NCCN[C@@H](CS)C(=O)[O-].[O]=[Tc+3]` [^99mTc-EC, ^99mTc-L,L-ethylenedicysteine, reference compound] yielded a Blood (1 Hour) of 0.273 ± 0.039 % ID/g, an Intestine (1 Hour) of 0.787 ± 0.106 % ID/g and a Kidney (1 Hour) of 8.991 ± 0.268 % ID/g. The Liver (1 Hour) was 0.367 ± 0.006 % ID/g, the Lung (1 Hour) was 0.187 ± 0.029 % ID/g and the Muscle (1 Hour) was 0.043 ± 0.002 % ID/g. For the same compound, the Stomach (1 Hour) was 0.127 ± 0.106 % ID/g, the Thyroid (1 Hour) was 0.229 ± 0.118 % ID/g and the Tumor (1 Hour) was 0.149 ± 0.020 % ID/g. For the same compound, the Tumor/Blood (1 Hour) was 0.544 ± 0.004, the Tumor/Lung (1 Hour) was 0.797 ± 0.022 and the Tumor/Muscle (1 Hour) was 3.414 ± 0.325. It also gave a Urine (1 Hour) of 11.045 ± 6.158 % ID/g, a Blood (2 Hour) of 0.211 ± 0.001 % ID/g and an Intestine (2 Hour) of 0.401 ± 0.093 % ID/g. It also gave a Kidney (2 Hour) of 9.116 ± 0.053 % ID/g, a Liver (2 Hour) of 0.286 ± 0.073 % ID/g and a Lung (2 Hour) of 0.144 ± 0.002 % ID/g. It also gave a Muscle (2 Hour) of 0.028 ± 0.009 % ID/g, a Stomach (2 Hour) of 0.037 ± 0.027 % ID/g and a Thyroid (2 Hour) of 0.106 ± 0.003 % ID/g. It also gave a Tumor (2 Hour) of 0.115 ± 0.002 % ID/g, a Tumor/Blood (2 Hour) of 0.546 ± 0.010 and a Tumor/Lung (2 Hour) of 0.797 ± 0.002. The Tumor/Muscle (2 Hour) was 4.425 ± 1.397, the Urine (2 Hour) was 13.192 ± 4.505 % ID/g and the Blood (4 Hour) was 0.149 ± 0.008 % ID/g. For the same compound, the Intestine (4 Hour) was 0.103 ± 0.009 % ID/g, the Kidney (4 Hour) was 7.834 ± 1.018 % ID/g and the Liver (4 Hour) was 0.234 ± 0.016 % ID/g. For the same compound, the Lung (4 Hour) was 0.120 ± 0.012 % ID/g, the Muscle (4 Hour) was 0.019 ± 0.001 % ID/g and the Stomach (4 Hour) was 0.043 ± 0.014 % ID/g. For the same compound, the Thyroid (4 Hour) was 0.082 ± 0.005 % ID/g, the Tumor (4 Hour) was 0.096 ± 0.005 % ID/g and the Tumor/Blood (4 Hour) was 0.649 ± 0.005. The Tumor/Lung (4 Hour) was 0.798 ± 0.007, the Tumor/Muscle (4 Hour) was 5.093 ± 0.223 and the Urine (4 Hour) was 8.693 ± 2.981 % ID/g. For the same compound, the Blood (30 Min.) was 0.435 ± 0.29 % ID/g, the Intestine (30 Min.) was 0.173 ± 0.029 % ID/g and the Kidney (30 Min.) was 7.914 ± 0.896 % ID/g. The Liver (30 Min.) was 0.508 ± 0.062 % ID/g, the Lung (30 Min.) was 0.272 ± 0.019 % ID/g and the Muscle (30 Min.) was 0.060 ± 0.006 % ID/g. It also gave a Stomach (30 Min.) of 0.136 ± 0.060 % ID/g, a Thyroid (30 Min.) of 0.219 ± 0.036 % ID/g and a Tumor (30 Min.) of 0.342 ± 0.163 % ID/g. It also gave a Tumor/Blood (30 Min.) of 0.776 ± 0.322, a Tumor/Lung (30 Min.) of 1.256 ± 0.430 and a Tumor/Muscle (30 Min.) of 5.841 ± 3.253. For the same compound, the Urine (30 Min.) was 9.124 ± 0.808 % ID/g.
